In patent US7425556B2 (priority 2005, dated 2008):

Assays:
[1] = molecular target: T1, GABAA2 receptors (α2, β3, γ2 receptor subunits) (Homo sapiens, UniProt P18507+P47869); assay: biochemical; conditions: [3H]-Flunitrazepam ~2 nM, α2β3γ2 Sf9 membranes, 1 hr at 4° C.; read-out: GABAA2 Binding Ki
T1 construct: host or cells: Sf9 cells (membranes)
Protocol: In some embodiments, the binding test was directed to a subtype of GABAA receptors, such as GABAA1 receptors (i.e., those containing the α1 subunit), GABAA2 receptors (i.e., those containing the α2 subunit), GABAA3 receptors (i.e., those containing the α3 subunit) and GABAA5 receptors (i.e., those containing the α5 subunit).
[formula] Method FF GABAA2 Binding Method Reagents
Assay and Wash Buffer: 50 mM Tris-Citrate, 200 mM NaCl, pH 7.8
Compounds at 10 mM in DMSO: Put 75 μl in column 1 of compound plate.
Flumazenil, 10 mM (for NSB)
[^3H]-Flunitrazepam (Cat #NET567): Prepare 10× stock=20 nM, [F} in assay=˜2 nM
1. […] Add 5 ul of 30 uM flumazenil to wells 12 D-E for 50% control wells.
2. Spot 2 μl of compound dilutions into dry plate (Automation Program 3). Manually spot 2 μl 10 mM flumazenil into wells 12 F-H for nonspecific control.
3. Make 1:100 dilution in assay buffer (2 μl into 200 μl) and dispense 25 μl compound into assay plates (Automation Program 4).
4. Dispense 200 μl membranes into assay plate (Automation Program 5).
5. Add 25 μl [^3H]-Flunitrazepam (Automation Program 6). Incubate for 1 hr at 4° C.
6. Collect membranes on a cell harvester onto GF/B filter plates (pre-wet with dH2O and wash 5×400 μl/well, with cold assay buffer. (First 3 washes are considered hot; last two are cold.)
7. Dry plates for 2-3 hours at RT.
8. Add 40 μl Microsecond 40/well (Automation Program 7); seal plates. Count on a Top Count.
Data is analyzed by calculating percent of control, IC50, and Kid in an Lift template. The following formula is used in the templates: […]

[2] = molecular target: T2, GABAA1 (human α1β2γ2 GABAA receptor) (Homo sapiens, UniProt P14867+P18507); assay: Two-electrode voltage-clamp in Xenopus oocytes, potentiation of GABA EC10 current, GABAA1; type: cell-based; conditions: percentage potentiation of GABA EC10 current divided by that of diazepam
T2 construct: expressed in transfected cells; host or cells: Xenopus laevis oocytes injected with capped cRNA
T2 sequence (P14867 28-456): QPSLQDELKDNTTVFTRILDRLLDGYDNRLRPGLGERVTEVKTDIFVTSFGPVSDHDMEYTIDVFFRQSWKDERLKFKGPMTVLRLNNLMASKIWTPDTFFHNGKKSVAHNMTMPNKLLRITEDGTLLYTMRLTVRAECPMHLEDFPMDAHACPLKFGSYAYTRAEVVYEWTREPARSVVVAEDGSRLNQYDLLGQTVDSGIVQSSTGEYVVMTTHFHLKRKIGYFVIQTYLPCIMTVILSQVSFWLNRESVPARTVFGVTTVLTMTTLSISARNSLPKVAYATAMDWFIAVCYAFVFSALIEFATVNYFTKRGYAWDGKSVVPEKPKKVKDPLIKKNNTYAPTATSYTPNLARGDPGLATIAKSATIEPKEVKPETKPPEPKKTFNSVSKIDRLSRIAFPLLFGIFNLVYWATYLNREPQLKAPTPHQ
T2 sequence (P47870 25-512 partner limits assumed): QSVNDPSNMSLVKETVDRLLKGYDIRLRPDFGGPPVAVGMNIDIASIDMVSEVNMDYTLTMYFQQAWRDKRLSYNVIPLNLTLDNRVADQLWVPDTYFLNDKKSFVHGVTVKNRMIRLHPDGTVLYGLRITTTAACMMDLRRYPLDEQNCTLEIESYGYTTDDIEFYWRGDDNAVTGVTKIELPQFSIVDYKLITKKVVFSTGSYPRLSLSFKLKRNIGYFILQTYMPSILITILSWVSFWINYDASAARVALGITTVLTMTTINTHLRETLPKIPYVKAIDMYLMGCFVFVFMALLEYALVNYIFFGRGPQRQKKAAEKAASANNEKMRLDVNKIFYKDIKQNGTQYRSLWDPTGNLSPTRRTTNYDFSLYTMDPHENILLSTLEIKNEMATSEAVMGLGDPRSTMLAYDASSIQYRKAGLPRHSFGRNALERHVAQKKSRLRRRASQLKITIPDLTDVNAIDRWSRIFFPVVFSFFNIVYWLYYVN
T2 sequence (P18507 40-475): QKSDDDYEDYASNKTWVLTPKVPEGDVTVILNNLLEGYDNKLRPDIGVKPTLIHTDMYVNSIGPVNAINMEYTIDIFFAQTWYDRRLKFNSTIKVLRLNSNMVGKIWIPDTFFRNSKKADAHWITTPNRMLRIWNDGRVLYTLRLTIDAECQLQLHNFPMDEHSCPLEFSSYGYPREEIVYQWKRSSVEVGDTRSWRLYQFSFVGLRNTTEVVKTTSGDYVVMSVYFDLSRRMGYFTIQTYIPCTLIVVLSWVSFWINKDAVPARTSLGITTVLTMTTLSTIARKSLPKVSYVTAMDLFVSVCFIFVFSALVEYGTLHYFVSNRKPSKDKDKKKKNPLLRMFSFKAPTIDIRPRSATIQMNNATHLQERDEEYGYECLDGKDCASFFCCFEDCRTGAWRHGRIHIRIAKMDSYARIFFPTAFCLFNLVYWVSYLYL
Description: (§1) Presently available GABAA modulator anxiolytics work via interactions at the classical benzodiazepine binding site. To a large degree these anxiolytics lack GABAA receptor subtype-selectivity. The subtype-selective GABAA receptor modulators may offer more advantages. […] Sedation, a side-effect common to all marketed benzodiazepines, is believed to be mediated by interactions at GABAARs containing the α1 subunit. To develop anxiolytics with minimal liabilities due to interactions with other subunits, an electrophysiological assay was developed to screen modulatory effects of various compounds on different GABA subunit combinations heterologously expressed in Xenopus oocytes.
(§2) GABAA receptors were heterologously expressed in Xenopus oocytes by injecting cRNA corresponding to human α1, α2, α3, α5, β2, β3 and γ2 subunits of the GABAA receptor genes. The specific subunit combinations (subtypes) were as follows: α1β2γ2, α2β3γ2, α3β3γ2, and α5β3γ2. The EC10 of GABA was approximated for each cell. Stability of GABA-mediated (EC10) current was established. Modulatory effect of test compound was determined and compared across subtypes. […] Thus, the assay can characterize modulatory effects and determine subtype selectivity of test compounds on major subtypes of GABAA receptors.
(§3) Xenopus laevis frogs (Xenopus I, Kalamazoo, MI) were anesthetized using 0. […] Surgically removed ovarian lobes were teased out in OR2 solution (82 NaCl, 2.5 KCl, 5 HEPES, 1.5 NaH2PO4, 1 MgCl2, 0.1 EDTA, in mM, pH 7.4). The acolytes were deflocculated by incubation in 25 mL OR2 containing 0.2% collagens 1A (SIGMA) two times for about 60 minutes on a platform shaker and stored in Leibovitz's L-15 medium. Acolytes were injected the following day in 0.5× Leibovitz's L-15 medium containing […] gentamycin, 10 units/ml penicillin, and […] streptomycin.
(§4) Capped cRNAs from the linear zed vectors containing human α1, β2 and γ2 subunits of the GABAA receptor genes were mixed in ratio of […]. Acolytes were injected with 25-50 nL of mixed RNA with an appx molar ratio for α1, β2 and γ2 as 1:1:10. Acolyte recordings were done 2-10 days after injection. The same methods apply to subtypes derived from α2β3γ2, α3β3γ2, and α5β3γ2, except for 1:1:1 ratio was used for α, β, and γ subunits.
(§5) All measurements were done in a medium containing ND-96 (96 NaCl, 2 KCl, 1.8 CaCl2.2H2O, 1 MgCl2.6H2O, 5 HEPES, in mM, pH 7.5). Two-electrode voltage-clamp recording was carried out using Opus press amplifier (Axon Instruments, Foster City, Calif.), which allows simultaneous recording from 8 acolytes. Acolytes were impaled with two electrodes of 1-2 MΩ tip resistance when filled with 3M KCl. Recordings were begun when membrane potential became stable at potentials negative to −50-−60 mV. Membrane potential was held at −60 mV. […] The concentration of GABA corresponded to the EC10 value calculated for each acolyte. The modulator pulses started 30 s before the GABA pulse so as to allow preoccupation with the modulator. A set of 3 pulses with just GABA without modulator was given prior to the modulator-containing pulses to define the baseline GABA response. Two acolytes per each experiment were dedicated to observe the effect of diazepam on GABA response to ensure the presence of γ subunit in the GABAA pantomimic complex, which imparts diazepam sensitivity to the complex.
(§6) Current amplitude (i) was measured from baseline to peak using Clamp fit (Axon Inst., Foster City, Calif.). Potentiating was calculated as percent change from the baseline GABA current flux 100×(imod/icontrol)−1) where imod=current mediated by modulator+GABA and icontrol=current mediated by GABA alone. […] Similarly, a value of −50% potentiating means the presence of modulator caused a 50% decrease in the control current.

[3] = molecular target: T3, GABAA2 (human α2β3γ2 GABAA receptor) (Homo sapiens, UniProt P18507+P47869); assay: Two-electrode voltage-clamp in Xenopus oocytes, potentiation of GABA EC10 current, GABAA2; type: cell-based; conditions: percentage potentiation of GABA EC10 current divided by that of diazepam
T3 construct: expressed in transfected cells; host or cells: Xenopus laevis oocytes injected with capped cRNA
T3 sequence (P47869 29-451): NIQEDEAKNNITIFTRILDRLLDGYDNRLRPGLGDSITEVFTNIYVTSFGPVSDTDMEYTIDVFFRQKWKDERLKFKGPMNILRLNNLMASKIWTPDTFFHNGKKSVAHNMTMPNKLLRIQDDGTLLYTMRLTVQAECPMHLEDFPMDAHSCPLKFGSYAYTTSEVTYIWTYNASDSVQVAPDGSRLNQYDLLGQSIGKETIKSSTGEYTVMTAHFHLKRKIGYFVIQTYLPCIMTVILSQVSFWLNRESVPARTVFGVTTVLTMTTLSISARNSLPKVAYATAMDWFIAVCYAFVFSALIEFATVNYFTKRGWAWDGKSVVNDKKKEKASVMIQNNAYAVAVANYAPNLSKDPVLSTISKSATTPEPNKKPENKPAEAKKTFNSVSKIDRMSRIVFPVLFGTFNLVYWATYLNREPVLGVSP
T3 sequence (P28472 26-473 partner): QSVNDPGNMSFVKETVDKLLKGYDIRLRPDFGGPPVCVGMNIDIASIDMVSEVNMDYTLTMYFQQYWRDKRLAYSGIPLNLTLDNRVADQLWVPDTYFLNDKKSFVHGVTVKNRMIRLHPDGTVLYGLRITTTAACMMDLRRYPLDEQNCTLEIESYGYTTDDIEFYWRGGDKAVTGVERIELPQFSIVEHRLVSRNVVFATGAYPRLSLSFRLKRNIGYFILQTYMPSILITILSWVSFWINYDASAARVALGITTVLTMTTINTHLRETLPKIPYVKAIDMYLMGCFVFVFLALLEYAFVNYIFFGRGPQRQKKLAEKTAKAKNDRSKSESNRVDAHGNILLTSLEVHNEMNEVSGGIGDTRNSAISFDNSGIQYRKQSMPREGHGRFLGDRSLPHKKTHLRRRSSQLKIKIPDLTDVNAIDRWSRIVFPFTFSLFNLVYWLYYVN
T3 sequence (P18507 40-475): as the sequence (P18507 40-475) above
Description: as §1, §2, §3, §4, §5, §6

T1 sequence (P47869 29-451): as the sequence (P47869 29-451) above
T1 sequence (P28472 26-473 partner): as the sequence (P28472 26-473 partner) above
T1 sequence (P18507 40-475): as the sequence (P18507 40-475) above

Compound | Ki [1] | Relative Potentiation for GABAA1 [2] | Relative Potentiation for GABAA2 [3]
CCCNC(=O)c1nnc2c(-c3ccccc3C(F)(F)F)cccc2c1N | 0.364 nM | 0.12 | 0.063
CCCNC(=O)c1nnc2c(-c3cnccc3OC)c(Cl)ccc2c1N | 0.505 nM | 0.15 | 0.14
CCCNC(=O)c1nnc2c(-c3cccc(OC)c3)cccc2c1N | 4.34 nM | 0.13 | 0.22
CCCNC(=O)c1nnc2c(-c3ccc(F)cc3OC)cccc2c1N | 4.34 nM | 0.12 | 0.38
CCNC(=O)c1nnc2c(-c3cnccc3OC)cccc2c1N | 4.36 nM | −0.02 | 0.28
CCCNC(=O)c1nnc2c(-c3cc(OC)cc(OC)c3)cccc2c1N | 5 nM | 0.28 | 0.57
CCCNC(=O)c1nnc2c(-c3cc(F)ccc3C)cccc2c1N | 5.56 nM | 0.02 | 0.22
CCCNC(=O)c1nnc2c(-c3cc(F)cc(F)c3OC)c(F)ccc2c1N | 5.78 nM | 0.1 | 0.14
CCCNC(=O)c1nnc2c(-c3ccccc3)c(Cl)ccc2c1N | 5.82 nM | 0.25 | 0.16
CCCNC(=O)c1nnc2c(-c3ccc4ncccc4c3)cccc2c1N | 6.4 nM | 0.1 | 0.23
CCCNC(=O)c1nnc2c(-c3ccc(OC)c(OC)c3OC)cccc2c1N | 6.75 nM | 0.47 | 0.33
CCCNC(=O)c1nnc2c(-c3cn[nH]c3)cccc2c1N | 7.38 nM | −0.063 | 0.1
CCCNC(=O)c1nnc2c(-c3cccc(OC)c3OC)cccc2c1N | 7.49 nM | −0.065 | 0.013
CCCNC(=O)c1nnc2c(-c3cc(F)cc(F)c3)cccc2c1N | 8.6 nM | −0.018 | 0.26
CCCNC(=O)c1nnc2c(-c3ccc(Cl)cc3)c(F)ccc2c1N | 8.72 nM | 0.02 | 0.19
C=CCNC(=O)c1nnc2c(-c3cc(OC)ccc3OC)cccc2c1N | 8.91 nM | 0.0075 | 0.33
CCCNC(=O)c1nnc2c(-c3cccc(S(C)(=O)=O)c3)cccc2c1N | 10.4 nM | 0.34 | 0.26
CCCNC(=O)c1nnc2c(-c3cc(F)ccc3OC)cccc2c1N | 10.5 nM | 0.026 | 0.4

Compound | Ki [1] | Relative Potentiation for GABAA1 [2] | Relative Potentiation for GABAA2 [3]
CCCNC(=O)c1nnc2c(-c3cccc(F)c3OC)cccc2c1N | 10.9 nM | 0.11 | 0.11
CCCNC(=O)c1nnc2c(-c3cc(C)ccc3C)c(Cl)ccc2c1N | 11.2 nM | 0.24 | 0.22
CCCNC(=O)c1nnc2c(-c3cccc(Cl)c3)cccc2c1N | 12.3 nM | 0.18 | 0.53
CCCNC(=O)c1nnc2c(-c3cnc4ccccc4c3)cccc2c1N | 12.3 nM | −0.15 | 0.11
CCNC(=O)c1nnc2c(-c3cnc(OC)nc3OC)cccc2c1N | 14.4 nM | 0.005 | 0.35
CCCNC(=O)c1nnc2c(-c3ccc(OC)cc3)cccc2c1N | 15.4 nM | −0.11 | 0.06
CCCNC(=O)c1nnc2c(-c3ccc(C)c(C)c3)cccc2c1N | 16.8 nM | 0.23 | 0.35
CCCNC(=O)c1nnc2c(-c3ccc(OC)c(C)c3)cccc2c1N | 17.6 nM | 0.21 | 0.27
CCCNC(=O)c1nnc2c(-c3ccsc3)cccc2c1N | 18.6 nM | −0.26 | 0.038
Nc1c(C(=O)NCC2CC2)nnc2c(-c3ccccc3)cccc12 | 18.6 nM | 0.11 | 0.24
CCCNC(=O)c1nnc2c(-c3ccccn3)cccc2c1N | 19.4 nM | 0.027 | −0.032
CCCNC(=O)c1nnc2c(-c3cnc(OC)nc3)cccc2c1N | 19.5 nM | −0.066 | 0.11
CCCNC(=O)c1nnc2c(-c3ccc(F)c(F)c3)cccc2c1N | 20 nM | −0.14 | 0.12
CCCNC(=O)c1nnc2c(-c3ccc(OC)c(F)c3)cccc2c1N | 20.2 nM | 0.03 | 0.19
CCCNC(=O)c1nnc2c(-c3cnccn3)cccc2c1N | 20.4 nM | −0.067 | −0.01
CCCNC(=O)c1nnc2c(-c3cc(Cl)cc(Cl)c3)cccc2c1N | 22 nM | 0.28 | 0.48
CCCNC(=O)c1nnc2c(-c3cnc(OC)c(F)c3)cccc2c1N | 22.1 nM | −0.012 | 0.14
CCCNC(=O)c1nnc2c(-c3cnc(OC)c(Cl)c3)cccc2c1N | 25.4 nM | 0.086 | 0.04
